In US20260224524A1, “A PHARMACEUTICAL COMPOSITION TARGETING MUTANT P53 AND HER2” (DR DOZO LABORATORIES, priority 2023, published 2026):
Converted amounts (≈) assume the structure as drawn. Blank lines part the entries; values can stand above or below the compound they belong to.

Key:
Assay type in all cases: cell-based
[1] = system: Human Breast Cancer Cell Line MDA-MB-231; test: Growth inhibition (% control growth, LC50, TGI, GI50) MDA-MB-231; conditions: Molar drug concentrations calculated from graph
lung cancer cell = test: Cell viability MTT assay of SACC fractions on lung cells; conditions: 24 h, read-out: inhibitory concentrations, lung cancer cell growth
Description: The effect of SACC fractions (peak 2, peak 3, peak 4 and peak 5) on viability of lung cells was determined by MTT assay.
Cells were seeded in 96 wells plate at a density of 1×10^4 per well in 200 μL of respective complete culture medium containing 10% FBS and 1% antibiotics. After 70% confluency, cells were treated with the respective doses (indicated in the graph) of SACC and its fraction in complete culture medium for 24 h. After incubation for a specified time at 37° C. in a humidified incubator, dye MTT (5 mg/mL in PBS; diluted in 10 mL of serum-free medium) was added to each well and incubated for 2 h, after which the plate was centrifuged at 1,000 rpm for 5 min at 4° C. After careful removal of the medium, 0.1 mL buffered DMSO was added to each well. The absorbance was recorded on a microplate reader at the wavelength of 540 nm. The effect SACC and its fraction on cell growth inhibition was assessed as percent cell viability, where vehicle-treated cells were taken as 100% viable.

[2] = system: Human Pancreatic Cancer Cell Line Mia-Pa-Ca-2; test: Growth inhibition (% control growth, LC50, TGI, GI50) Mia-Pa-Ca-2; conditions: Mia-Pa-Ca-2
Description: The therapeutic effect of SA1 (peak 5) and SA2 (peak 4) is evaluated against human pancreatic cancer cell line Mia-Pa-Ca-2 by calculating the percentage growth inhibition, drug concentration of test compound needed to inhibit cell growth by 50% (GI50) values.
The therapeutic effect of SACC is evaluated against human […] cancer cell line Mia-Pa-Ca-2 by calculating the percentage growth inhibition, drug concentration of test compound needed to inhibit cell growth by 50% (GI50) values.

[3] = system: Human Breast Cancer Cell Line MDA-MB-231; test: Growth inhibition (% control growth, LC50, TGI, GI50) MDA-MB-231
Description: The therapeutic effect of […] (peak 5) and SA2 (peak 4) is evaluated against human […] cancer cell line MDA-MB-231 by calculating the percentage growth inhibition, drug concentration of test compound needed to inhibit cell growth by 50% (GI50) values.
The therapeutic effect of SACC is evaluated against human […] cancer cell lines MDA-MB-231 by calculating the percentage growth inhibition, drug concentration of test compound needed to inhibit cell growth by 50% (GI50) values.

[4] = system: Human Lung Cancer Cell Line A-549; test: Growth inhibition (% control growth, LC50, TGI, GI50) A-549; conditions: A-549
Description: The therapeutic effect of SA1 (peak 5) and SA2 (peak 4) is evaluated against human lung cancer cell line A-549 by calculating the percentage growth inhibition, drug concentration of test compound needed to inhibit cell growth by 50% (GI50) values.
The therapeutic effect of SACC is evaluated against human lung cancer cell line A-549 by calculating the percentage growth inhibition, drug concentration of test compound needed to inhibit cell growth by 50% (GI50) values.

IC50 (lung cancer cell): 1.02 µg/mL (≈ 8.09 µM)
SMILES: Cc1ccc(O)oc1=O (single isomer, unassigned) [SA2 (peak 4), 6-hydroxy-3-methyl-2H-pyran-2-one]
TGI [1]: 0.1727 µg/mL (≈ 1.37 µM)
GI50 ([2]; Homo sapiens, MIA PaCa-2, Molar drug concentrations calculated from graph): 0.000301 µg/mL (≈ 0.00239 µM)
% Control Growth ([2]; 10^−4M, Average Values): 40.5%
% Control Growth ([2]; 10^−4M, Experiment 1): 40.0%
% Control Growth ([2]; 10^−4M, Experiment 2): 36.6%
% Control Growth ([2]; 10^−4M, Experiment 3): 45.0%
% Control Growth ([2]; 10^−5M, Average Values): 100.5%
% Control Growth ([2]; 10^−5M, Experiment 1): 76.9%
% Control Growth ([2]; 10^−5M, Experiment 2): 116.3%
% Control Growth ([2]; 10^−5M, Experiment 3): 108.3%
% Control Growth ([2]; 10^−6M, Average Values): 112.4%
% Control Growth ([2]; 10^−6M, Experiment 1): 114.3%
% Control Growth ([2]; 10^−6M, Experiment 2): 115.6%
% Control Growth ([2]; 10^−6M, Experiment 3): 107.5%
% Control Growth ([2]; 10^−7M, Average Values): 102.1%
% Control Growth ([2]; 10^−7M, Experiment 1): 95.4%
% Control Growth ([2]; 10^−7M, Experiment 2): 111.8%
% Control Growth ([2]; 10^−7M, Experiment 3): 99.0%
TGI ([2]; Molar drug concentrations calculated from graph): 0.1054 µg/mL (≈ 0.836 µM)
% Control Growth ([3]; 10^−4M, Average Values): 27.9%
% Control Growth ([3]; 10^−4M, Experiment 1): 50.1%
% Control Growth ([3]; 10^−4M, Experiment 2): 18.1%
% Control Growth ([3]; 10^−4M, Experiment 3): 15.5%
% Control Growth ([3]; 10^−5M, Average Values): 47.2%
% Control Growth ([3]; 10^−5M, Experiment 1): 45.5%
% Control Growth ([3]; 10^−5M, Experiment 2): 42.0%
% Control Growth ([3]; 10^−5M, Experiment 3): 54.1%
% Control Growth ([3]; 10^−6M, Average Values): 62.8%
% Control Growth ([3]; 10^−6M, Experiment 1): 68.2%
% Control Growth ([3]; 10^−6M, Experiment 2): 59.7%
% Control Growth ([3]; 10^−6M, Experiment 3): 60.5%
% Control Growth ([3]; 10^−7M, Average Values): 57.0%
% Control Growth ([3]; 10^−7M, Experiment 1): 81.0%
% Control Growth ([3]; 10^−7M, Experiment 2): 42.6%
% Control Growth ([3]; 10^−7M, Experiment 3): 47.3%
GI50 ([3]; Homo sapiens, Molar drug concentrations calculated from graph): 2.38 µg/mL (≈ 18.9 µM)
% Control Growth ([4]; 10^−4M, Average Values): 54.9%
% Control Growth ([4]; 10^−4M, Experiment 1): 54.4%
% Control Growth ([4]; 10^−4M, Experiment 2): 51.7%
% Control Growth ([4]; 10^−4M, Experiment 3): 58.6%
% Control Growth ([4]; 10^−5M, Average Values): 74.8%
% Control Growth ([4]; 10^−5M, Experiment 1): 81.5%
% Control Growth ([4]; 10^−5M, Experiment 2): 72.0%
% Control Growth ([4]; 10^−5M, Experiment 3): 70.9%
% Control Growth ([4]; 10^−6M, Average Values): 77.4%
% Control Growth ([4]; 10^−6M, Experiment 1): 74.0%
% Control Growth ([4]; 10^−6M, Experiment 2): 80.1%
% Control Growth ([4]; 10^−6M, Experiment 3): 78.2%
% Control Growth ([4]; 10^−7M, Average Values): 77.3%
% Control Growth ([4]; 10^−7M, Experiment 1): 80.0%
% Control Growth ([4]; 10^−7M, Experiment 2): 76.9%
% Control Growth ([4]; 10^−7M, Experiment 3): 74.9%
GI50 ([4]; Homo sapiens, A549, Molar drug concentrations calculated from graph): 0.0034 µg/mL (≈ 0.0269 µM)

IC50 (lung cancer cell): 1.04 µg/mL (≈ 5.84 µM)
SMILES: O=C1CC2=CC(O)=CC(=O)C2=CO1 (single isomer, unassigned) [peak 2, 6-hydroxy-3H-isochromene-3, 8(4H)-dione]

IC50 (lung cancer cell): 1.06 µg/mL (≈ 6.05 µM)
SMILES: Cc1ccc2[nH]cc(C(=O)O)c2c1 (single isomer, unassigned) [peak 3, 5-methyl-1H-indole-3-carboxylic acid]
